Target: T1, PDE4B (Homo sapiens, UniProt Q07343)
T1 construct: hex-histidine (His6) (N); made in house
Test: Novel coupled PDE/AK bioluminescent assay, PDE4B inhibition
Type: biochemical
Settings: PDE4B catalytic domain
Excerpt: We developed a novel coupled PDE/AK bioluminescent high-throughput assay to measure the activity of phosphodiesterases. In the PDE/AK assay, the AMP produced from the hydrolysis of cAMP by phosphodiesterase is converted to adenosine diphosphate (ADP) by the phosphotransferase activity of adenylate kinase (also known as ADK or myokinase). Adenylate kinase will catalyze the conversion of 1 mole of AMP and 1 mole of ATP into 2 moles of ADP. Thus the conversion of AMP to ADP will result in the subsequent loss of ATP. The decrease in ATP concentration can be monitored as light output using luciferase in a reaction that requires ATP to produce light. The PDE/AK assay uses luciferase, which catalyzes the production of light from ATP present in the reaction mix. The amount of emitted light is inversely proportional to the level of AMP present in the reaction. Test compounds are incubated with the phosphodiesterases and phosphodiesterase inhibitors will decrease the rate of cAMP hydrolysis and decrease the subsequent production of AMP.
A novel coupled PDE/AK assay was utilized to measure the inhibitory activity of compounds on PDE isoforms. The catalytic domain of PDE4B was fused to an amino-terminus hex-histidine affinity tag and purified. PDE4B enzyme was incubated with compounds for 10 minutes. Cyclic AMP substrate, ATP and adenylate kinase were then added to the PDE enzyme mix and incubated for 45 minutes at room temperature. A commercial ATP detection assay, Perkin Elmer's easyLite ATP detection reagent, was then added to measure the relative amount of ATP present in the reaction. After 10 minute incubation, the luminescent signal was quantitated with either the Perkin Elmer Viewlux or Molecular Devices Acquest or Analyst.

T1 sequence (Q07343 330-659 limits assumed, species assumed): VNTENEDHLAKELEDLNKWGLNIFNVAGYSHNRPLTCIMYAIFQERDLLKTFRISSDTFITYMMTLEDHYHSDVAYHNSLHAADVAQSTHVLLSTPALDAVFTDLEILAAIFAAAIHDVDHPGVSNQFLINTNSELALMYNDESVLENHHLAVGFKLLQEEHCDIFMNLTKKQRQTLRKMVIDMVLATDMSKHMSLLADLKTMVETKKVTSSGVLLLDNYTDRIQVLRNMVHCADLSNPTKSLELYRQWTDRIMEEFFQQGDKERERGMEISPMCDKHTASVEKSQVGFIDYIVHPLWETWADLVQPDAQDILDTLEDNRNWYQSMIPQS

IC50 [nM] | SMILES
< 1000 | COc1ccc2c(Nc3c(Cl)cncc3Cl)cc(=O)oc2c1OCCCCCN(C)CCCN(C)C [Example 92, 4-(3,5-Dichloropyridin-4-ylamino)-8-(5-((3-(dimethylamino)propyl)(methyl)amino)pentyloxy)-7-methoxy-2H-chromen-2-one]
< 1000 | COc1ccc2c(Nc3c(Cl)cncc3Cl)cc(=O)oc2c1OCc1ccccc1 [Example 26, 8-(Benzyloxy)-4-(3,5-dichloropyridin-4-ylamino)-7-methoxy-2H-chromen-2-one]
< 1000 | COc1ccc2c(Nc3c(Cl)cncc3Cl)cc(=O)oc2c1OCCc1ccccc1 [Example 41, 4-(3,5-Dichloropyridin-4-ylamino)-7-methoxy-8-phenethoxy-2H-chromen-2-one]
< 1000 | COc1ccc2c(Nc3c(Cl)cncc3Cl)cc(=O)oc2c1OCCCN(C)C [Example 32, 4-(3,5-Dichloropyridin-4-ylamino)-8-(3-(dimethylamino)propoxy)-7-methoxy-2H-chromen-2-one]
< 1000 | COc1ccc2c(Nc3c(Cl)cncc3Cl)cc(=O)oc2c1OCCCCCn1ncnn1 [Example 101, 8-(5-(2H-Tetrazol-2-yl)pentyloxy)-4-(3,5-dichloropyridin-4-ylamino)-7-methoxy-2H-chromen-2-one]
< 1000 | COc1ccc2c(Nc3c(Cl)cncc3Cl)cc(=O)oc2c1OCCCCCn1cnnn1 [Example 102, 8-(5-(1H-Tetrazol-1-yl)pentyloxy)-4-(3,5-dichloropyridin-4-ylamino)-7-methoxy-2H-chromen-2-one]
< 1000 | CCOC(=O)CCCCCOc1c(OC)ccc2c(Nc3c(Cl)cncc3Cl)cc(=O)oc12 [Example 38, Ethyl 6-(4-(3,5-dichloropyridin-4-ylamino)-7-methoxy-2-oxo-2H-chromen-8-yloxy)hexanoate]
> 1000 | COC(=O)c1cccc(Cl)c1Nc1cc(=O)oc2c(OC3CCCC3)c(OC)ccc12 [Example 20, Methyl 3-chloro-2-(8-(cyclopentyloxy)-7-methoxy-2-oxo-2H-chromen-4-ylamino)benzoate]
> 1000 | COc1ccc2c(Nc3c(Cl)ccc(C)c3Cl)cc(=O)oc2c1OC1CCCC1 [Example 16, 8-(Cyclopentyloxy)-4-(2,6-dichloro-3-methylphenylamino)-7-methoxy-2H-chromen-2-one]
< 1000 | COc1ccc2c(Nc3c(Cl)cncc3Cl)cc(=O)oc2c1OCCCCCN1CCCCC1 [Example 54, 4-(3,5-Dichloropyridin-4-ylamino)-7-methoxy-8-(5-(piperidin-1-yl)pentyloxy)-2H-chromen-2-one]
< 1000 | CCc1c(Nc2c(Cl)cncc2Cl)c2ccc(OC)c(OCC3CC3)c2oc1=O [Example 6, 8-(Cyclopropylmethoxy)-4-(3,5-dichloropyridin-4-ylamino)-3-ethyl-7-methoxy-2H-chromen-2-one]
< 1000 | COc1ccc2c(Nc3c(Cl)cncc3Cl)c(F)c(=O)oc2c1OC1CCCC1 [Example 14, 8-(Cyclopentyloxy)-4-(3,5-dichloropyridin-4-ylamino)-3-fluoro-7-methoxy-2H-chromen-2-one]
< 1000 | COc1ccc2c(Nc3c(Cl)cncc3Cl)cc(=O)oc2c1OCCCc1ccccc1 [Example 48, 4-(3,5-Dichloropyridin-4-ylamino)-7-methoxy-8-(3-phenylpropoxy)-2H-chromen-2-one]
< 1000 | COc1ccc2c(Nc3c(Cl)cncc3Cl)cc(=O)oc2c1OCCCCCCN(C)C [Example 79, 4-(3,5-Dichloropyridin-4-ylamino)-8-(6-(dimethylamino)hexyloxy)-7-methoxy-2H-chromen-2-one]
< 1000 | CNCCCCCOc1c(OC)ccc2c(Nc3c(Cl)cncc3Cl)cc(=O)oc12 [Example 100, 4-(3,5-Dichloropyridin-4-ylamino)-7-methoxy-8-(5-(methylamino)pentyloxy)-2H-chromen-2-one]
< 1000 | COc1ccc2c(Nc3c(Cl)cncc3Cl)cc(=O)oc2c1OCCCCCN1CCOCC1 [Example 53, 4-(3,5-Dichloropyridin-4-ylamino)-7-methoxy-8-(5-morpholinopentyloxy)-2H-chromen-2-one]
< 1000 | COc1ccc2c(Nc3c(C)cccc3Cl)cc(=O)oc2c1OC1CCCC1 [Example 18, 4-(2-Chloro-6-methylphenylamino)-8-(cyclopentyloxy)-7-methoxy-2H-chromen-2-one]
< 1000 | CCOC(=O)CCCCOc1c(OC)ccc2c(Nc3c(Cl)cncc3Cl)cc(=O)oc12 [Example 37, Ethyl 5-(4-(3,5-dichloropyridin-4-ylamino)-7-methoxy-2-oxo-2H-chromen-8-yloxy)pentanoate]
< 1000 | COc1ccc2c(Nc3c(Cl)cncc3Cl)cc(=O)oc2c1OCCCCCn1nccn1 [Example 99, 8-(5-(2H-1,2,3-Triazol-2-yl)pentyloxy)-4-(3,5-dichloropyridin-4-ylamino)-7-methoxy-2H-chromen-2-one]

IC50 [nM] | SMILES
< 1000 | COc1ccc2c(Nc3c(Cl)cncc3Cl)cc(=O)oc2c1OCc1ccccc1[N+](=O)[O-] [Example 33, 4-(3,5-Dichloropyridin-4-ylamino)-7-methoxy-8-(2-nitrobenzyloxy)-2H-chromen-2-one]
< 1000 | COc1ccc2c(Nc3ccccc3Cl)cc(=O)oc2c1OCC1CC1 [Example 24, 4-(2-Chlorophenylamino)-8-(cyclopropylmethoxy)-7-methoxy-2H-chromen-2-one]
< 1000 | COc1ccc2c(Nc3c(Cl)cncc3Cl)cc(=O)oc2c1OCCCBr [Example 30, 8-(3-Bromopropoxy)-4-(3,5-dichloropyridin-4-ylamino)-7-methoxy-2H-chromen-2-one]
< 1000 | COc1ccc2c(Nc3c(Cl)cncc3Cl)cc(=O)oc2c1OCCCCCCCCC(=O)O [Example 67, 9-(4-(3,5-Dichloropyridin-4-ylamino)-7-methoxy-2-oxo-2H-chromen-8-yloxy)nonanoic acid]
< 1000 | CCCN(C)CCCCCOc1c(OC)ccc2c(Nc3c(Cl)cncc3Cl)cc(=O)oc12 [Example 89, 4-(3,5-Dichloropyridin-4-ylamino)-7-methoxy-8-(5-(methyl(propyl)amino)pentyloxy)-2H-chromen-2-one]
< 1000 | CNP(=O)(NC)OCCCCCOc1c(OC)ccc2c(Nc3c(Cl)cncc3Cl)cc(=O)oc12 [Example 105]
< 1000 | COc1ccc2c(Nc3c(Cl)cncc3Cl)cc(=O)oc2c1OCCCCCOc1c(OC)ccc2c(Nc3c(Cl)cncc3Cl)cc(=O)oc12 [Example 74, 8,8′-(Pentane-1,5-diylbis(oxy))bis(4-(3,5-dichloropyridin-4-ylamino)-7-methoxy-2H-chromen-2-one)]
< 1000 | COc1ccc2c(Nc3c(Cl)cncc3Cl)cc(=O)oc2c1OCC(=O)NO [Example 88, 2-(4-(3,5-Dichloropyridin-4-ylamino)-7-methoxy-2-oxo-2H-chromen-8-yloxy)-N-hydroxyacetamide]
< 1000 | COc1ccc2c(Nc3c(Cl)cncc3Cl)cc(=O)oc2c1OCCCCCCCC(=O)O [Example 66, 8-(4-(3,5-Dichloropyridin-4-ylamino)-7-methoxy-2-oxo-2H-chromen-8-yloxy)octanoic acid]
> 1000 | COc1ccc2c(N[C@H]3CC[C@@H](C(=O)O)CC3)cc(=O)oc2c1OC1CCCC1 [Example 39, cis-4-(8-(Cyclopentyloxy)-7-methoxy-2-oxo-2H-chromen-4-ylamino)cyclohexanecarboxylic acid]
> 1000 | COc1ccc2c(NCC(=O)O)cc(=O)oc2c1OC1CCCC1 [Example 7, 2-(8-(Cyclopentyloxy)-7-methoxy-2-oxo-2H-chromen-4-ylamino)acetic acid]
< 1000 | CCOC(=O)CCCOc1c(OC)ccc2c(Nc3c(Cl)cncc3Cl)cc(=O)oc12 [Example 36, Ethyl 4-(4-(3,5-dichloropyridin-4-ylamino)-7-methoxy-2-oxo-2H-chromen-8-yloxy)butanoate]
< 1000 | COc1ccc2c(Nc3c(Cl)cncc3Cl)cc(=O)oc2c1OCCCCCN [Example 68, 8-(5-Aminopentyloxy)-4-(3,5-dichloropyridin-4-ylamino)-7-methoxy-2H-chromen-2-one]
< 1000 | COc1ccc2c(Nc3c(Cl)cncc3Cl)cc(=O)oc2c1OC[C@@H]1OC(=O)[C@@H](O)[C@H]1O [Example 51, 4-(3,5-Dichloropyridin-4-ylamino)-8-(((2S,3R,4S)-3,4-dihydroxy-5-oxotetrahydrofuran-2-yl)methoxy)-7-methoxy-2H-chromen-2-one]
> 1000 | CCOC(=O)CNc1cc(=O)oc2c(OC3CCCC3)c(OC)ccc12 [Example 8, Ethyl 2-(8-(cyclopentyloxy)-7-methoxy-2-oxo-2H-chromen-4-ylamino)acetate]
> 1000 | COc1ccc2c(Nc3c(Cl)cncc3Cl)c(CCO)c(=O)oc2c1OC1CCCC1 [Example 82, 8-(Cyclopentyloxy)-4-(3,5-dichloropyridin-4-ylamino)-3-(2-hydroxyethyl)-7-methoxy-2H-chromen-2-one]
< 1000 | COc1ccc2c(Nc3c(Cl)cncc3Cl)cc(=O)oc2c1OCCCCCC#N [Example 57, 6-(4-(3,5-Dichloropyridin-4-ylamino)-7-methoxy-2-oxo-2H-chromen-8-yloxy)hexanenitrile]
> 1000 | COC(=O)CCCCCOc1c(OC)ccc2c(N(C)c3c(Cl)cncc3Cl)cc(=O)oc12 [Example 59, Methyl 6-(4-((3,5-dichloropyridin-4-yl)(methyl)amino)-7-methoxy-2-oxo-2H-chromen-8-yloxy)hexanoate]

SMILES | IC50 [nM]
COc1ccc2c(Nc3c(Cl)cncc3Cl)cc(=O)oc2c1OCCCCCO[C@@H]1O[C@H](COC(C)=O)[C@@H](OC(C)=O)[C@H](OC(C)=O)[C@H]1OC(C)=O [Example 75, (2R,3R,4S,5R,6R)-2-(Acetoxymethyl)-6-(5-(4-(3,5-dichloropyridin-4-ylamino)-7-methoxy-2-oxo-2H-chromen-8-yloxy)pentyloxy)tetrahydro-2H-pyran-3,4,5-triyl triacetate] | < 1000
COc1ccc2c(Nc3c(Cl)cncc3Cl)cc(=O)oc2c1OCC(C)C [Example 23, 4-(3,5-Dichloropyridin-4-ylamino)-8-isobutoxy-7-methoxy-2H-chromen-2-one] | < 1000
COc1ccc2c(Nc3c(Cl)cncc3Cl)cc(=O)oc2c1OCCCCN1CCN(C)CC1 [Example 70, 4-(3,5-Dichloropyridin-4-ylamino)-7-methoxy-8-(4-(4-methylpiperazin-1-yl)butoxy)-2H-chromen-2-one] | < 1000
